Data published in PMC12723449, “From Pharmacophore to Warhead: NAD^+‐Targeting Triazoles as Mechanism‐Based Sirtuin Inhibitors” (Angewandte Chemie (International Ed. in English), 2025).

T1: SIRT2 (Homo sapiens, UniProt Q8IXJ6)
T1 construct: For assay experiments, strep-tagged human SIRT1134−747 and SIRT256-356 were expressed and purified as previously; Strep-tag; made in house; host or cells: E. coli BL21 Star (DE3)
T1 sequence (Q8IXJ6 56-356 limits assumed): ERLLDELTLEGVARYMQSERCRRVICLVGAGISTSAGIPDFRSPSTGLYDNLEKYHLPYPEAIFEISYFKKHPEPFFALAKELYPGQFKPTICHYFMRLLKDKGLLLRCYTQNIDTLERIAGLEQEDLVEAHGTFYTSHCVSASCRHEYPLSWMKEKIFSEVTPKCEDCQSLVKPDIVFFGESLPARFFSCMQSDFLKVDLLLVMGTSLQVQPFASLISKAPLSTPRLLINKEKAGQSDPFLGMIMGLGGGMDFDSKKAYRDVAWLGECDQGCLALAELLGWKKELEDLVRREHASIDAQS

T2: SIRT1 (Homo sapiens, UniProt Q96EB6)
T2 construct: For assay experiments, strep-tagged human SIRT1134−747 and SIRT256-356 were expressed and purified as previously; Strep-tag; made in house; host or cells: E. coli BL21 Star (DE3)
T2 sequence (Q96EB6 134-747 limits assumed): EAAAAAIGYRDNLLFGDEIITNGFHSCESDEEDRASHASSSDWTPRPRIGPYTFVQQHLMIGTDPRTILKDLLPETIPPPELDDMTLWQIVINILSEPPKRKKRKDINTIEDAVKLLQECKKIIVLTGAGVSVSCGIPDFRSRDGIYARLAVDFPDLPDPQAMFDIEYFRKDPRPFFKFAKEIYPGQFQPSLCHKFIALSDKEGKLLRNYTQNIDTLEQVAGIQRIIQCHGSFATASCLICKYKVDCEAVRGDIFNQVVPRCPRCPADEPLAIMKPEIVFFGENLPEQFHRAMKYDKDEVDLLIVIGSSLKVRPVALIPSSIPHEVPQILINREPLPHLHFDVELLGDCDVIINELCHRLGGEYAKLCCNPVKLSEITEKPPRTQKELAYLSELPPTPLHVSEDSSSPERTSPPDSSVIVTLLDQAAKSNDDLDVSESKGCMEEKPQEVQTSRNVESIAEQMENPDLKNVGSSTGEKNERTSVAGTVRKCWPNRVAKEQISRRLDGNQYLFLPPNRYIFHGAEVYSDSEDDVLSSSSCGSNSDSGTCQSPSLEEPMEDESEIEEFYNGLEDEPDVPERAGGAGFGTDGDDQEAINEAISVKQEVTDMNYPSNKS

T3: SIRT3 (Homo sapiens, UniProt Q9NTG7)
T3 construct: Human SIRT3118-395 was expressed and purified as previously described.[5]; made in house
T3 sequence (Q9NTG7 118-395 limits assumed): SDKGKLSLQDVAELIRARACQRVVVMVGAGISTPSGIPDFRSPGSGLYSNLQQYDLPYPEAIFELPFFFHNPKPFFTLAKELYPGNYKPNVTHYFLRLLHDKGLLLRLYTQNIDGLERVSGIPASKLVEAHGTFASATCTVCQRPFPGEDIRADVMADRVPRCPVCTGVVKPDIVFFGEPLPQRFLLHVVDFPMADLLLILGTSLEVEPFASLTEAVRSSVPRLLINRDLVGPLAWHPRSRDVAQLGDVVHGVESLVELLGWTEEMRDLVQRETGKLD

T4: NanoLuc–SIRT2 fusion protein in HEK293T cells (Homo sapiens, UniProt Q8IXJ6)
T4 construct: transfected HEK293T cells expressing the NanoLuc-tagged SIRT250-356 fusion protein were used instead of transient; expressed in transfected cells; host or cells: HEK293T (stably transfected)
T4 sequence (Q8IXJ6 50-356 limits assumed): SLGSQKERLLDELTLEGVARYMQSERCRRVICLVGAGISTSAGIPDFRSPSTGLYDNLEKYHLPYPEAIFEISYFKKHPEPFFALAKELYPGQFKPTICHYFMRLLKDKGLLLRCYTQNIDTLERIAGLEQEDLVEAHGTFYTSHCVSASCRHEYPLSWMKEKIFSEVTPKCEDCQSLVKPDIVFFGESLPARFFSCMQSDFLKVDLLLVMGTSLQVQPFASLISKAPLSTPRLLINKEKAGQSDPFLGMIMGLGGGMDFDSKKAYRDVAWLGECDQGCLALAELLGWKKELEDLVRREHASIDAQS

T5: NanoLuc–SIRT2 fusion protein in HEK293T cells (Homo sapiens, UniProt Q8IXJ6)
T5 construct: HEK293T cells stably expressing the NanoLuc-SIRT250-364-fusion target protein were seeded into the coated plates; expressed in transfected cells; host or cells: HEK293T (stably expressing)
T5 sequence (Q8IXJ6 50-364 limits assumed): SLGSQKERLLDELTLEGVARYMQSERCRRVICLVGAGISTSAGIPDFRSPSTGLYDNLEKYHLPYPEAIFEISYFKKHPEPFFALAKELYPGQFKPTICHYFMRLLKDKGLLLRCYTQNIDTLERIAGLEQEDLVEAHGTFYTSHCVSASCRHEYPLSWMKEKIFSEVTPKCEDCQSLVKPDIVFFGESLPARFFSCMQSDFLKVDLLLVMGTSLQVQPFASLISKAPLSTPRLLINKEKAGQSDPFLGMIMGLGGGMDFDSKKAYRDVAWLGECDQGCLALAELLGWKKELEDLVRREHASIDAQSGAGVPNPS


Assays:
SIRT2 [1] = target: T1, SIRT2; test: Differential scanning fluorimetry (DSF) / fluorescence thermal shift assay; type: binding; conditions: 10 µM compound, with NAD+ addition
Procedure: Differential scanning fluorimetry (DSF) assay
Differential scanning fluorimetry assays were performed in white 96-well plates (Hard-Shell PCR Plates, BioRad, USA) with a total volume of 20 µL per well and a final DMSO concentration of 5% (v/v), following a published
A solution of 10 µL SIRT2 (final concentration of 6.0 µM) and SYPRO Orange (5x, Sigma-Aldrich, Germany) in assay buffer (25 mM Tris-HCl, 150 mM NaCl, 1 mM DTT, pH 8.0) was mixed with 10 µL of compound and incubated at 25 °C and 350 rpm for 5 min. Where applicable, NAD+ was added to a final concentration of 2.5 mM. Fluorescence
(C1000 Touch™ Thermal Cycler, CFX96™ Real-Time System, BioRad, USA). Melting temperatures were determined using GraphPad Prism, following a published procedure.[6]

SIRT1 = target: T2, SIRT1; test: Fluorescence-based deacetylation assay (ZMAL-assay), SIRT1; type: biochemical; conditions: 37 °C, assay limit 0.10 µM; for IC50: read-out: SIRT1 (deac.) IC50
Procedure: (§1) Determination of IC50 values (SIRT1, SIRT2, SIRT3) via fluorescence-based deacetylation assay […]
(§2) The fluorescence-based deacetylation assay was conducted in a black 384-well microplate (OptiPlate-384 F, PerkinElmer) with a total volume of 30 µL per well and a final DMSO concentration of 2% (v/v) according to a […]
(§3) concentration of 100 nM) in assay buffer (50 mM Tris, 137 mM NaCl, 2.7 mM KCl, 1m MgCl2, 0.01% Tween, 0.05 mg/mL BSA, 0.2 mM TCEP, pH 8.0), 5 µL of substrate (ZMAL, final concentration of 10.5 µM), 5 µL of NAD+ (final concentration of 500 µM) and 10 µL of inhibitor solution (final concentration of 30 µM – 0.014 µM, serial 1:3 dilutions) was incubated at 37 °C and 300 rpm for 4 h. A solution of trypsin (final concentration of 0.5 mg/mL) and nicotinamide (final concentration of 4 mM) was added and incubated at 37 °C and 300 rpm for 30 min to stop the reaction. Samples with 2% (v/v) DMSO instead of inhibitor were prepared as a positive control, and samples with 2% (v/v) DMSO instead of SIRT enzyme were prepared as a negative control. Fluorescence intensity was measured with a microplate reader (λEx = 380-10 nm, λEm = 460 nm, BMG POLARstar Optima, BMG Labtech, Germany). IC50 values were then determined using a nonlinear regression fit with Origin Pro 2019 software. All experiments were performed at least in duplicates. […]

SIRT2 [2] = target: T1, SIRT2; test: Fluorescence-based deacetylation assay (ZMAL-assay), SIRT2; type: biochemical; conditions: 37 °C, assay limit 0.10 µM, read-out: SIRT2 (deac.) IC50
Procedure: as §1, §2, §3

SIRT3 = target: T3, SIRT3; test: Fluorescence-based deacetylation assay (ZMAL-assay), SIRT3; type: biochemical; conditions: 37 °C, assay limit 0.10 µM; for IC50: read-out: SIRT3 (deac.) IC50
Procedure: as §1, §2, §3

SIRT2 [3] = target: T1, SIRT2; test: Fluorescence-based demyristoylation assay (BSA-Assay); type: biochemical
Procedure: Determination of IC50 values (SIRT2) via fluorescence-based demyristoylation assay (BSA-Assay) The fluorescence-based demyristoylation assay was conducted in a continuous manner in a black 384-well microplate (OptiPlate-384 F, PerkinElmer) with a total volume of 40 µL per well and a final DMSO concentration of 5% (v/v), following a published procedure.[9] A mixture of 14 µL SIRT2 (final concentration of 1 nM) in assay buffer (20 mM Tris, 150 mM NaCl, […], pH 7.8) freshly supplemented with 2 mg/mL of BSA, 14 µL of substrate (F4, KM = 33 ± 5 nM[9], final concentration of 40 nM) and 2 µL of inhibitor solution (final concentration of 100 µM – 0.002 µM, serial 1:2 or 1:4 dilutions) was incubated at 25 °C and 350 rpm for 5 min. Samples with 5% (v/v) DMSO instead of inhibitor were measured as a positive control, and samples with assay buffer and 5% (v/v) DMSO instead of SIRT2 were measured as a negative control. The reaction was started with the addition of 10 µL NAD+ (final concentration of 500 µM) and the product formation was immediately monitored by the change of the fluorescence intensity at 25 °C for 20 min. For NAD+ preincubation experiments, instead of the substrate, 10 µL of NAD+ (final concentration of 500 µM) was added to the solution and incubated at 25 °C and 350 rpm for 15 min. The reaction was started with the addition of 14 µL substrate (final concentration of 40 nM) and the product formation was immediately monitored by the change of the fluorescence intensity at 25 °C every 60 s for 20 min using a microplate reader (λEx = 485 nm, λEm = 530-10 nm, BMG POLARstar Optima, BMG Labtech, Germany).
The activity was normalized using the positive control as 100% and the negative control as 0%. The normalized activity (v/v0) was plotted as a function of the logarithm of the inhibitor concentration [I], and a nonlinear fit was performed according to the following equation to determine the IC50 value.[9] […]

[4] = target: T4, NanoLuc–SIRT2 fusion protein in HEK293T cells; test: NanoBRET cellular target engagement assay; type: cell-based; conditions: without digitonin
Procedure: The NanoBRET target engagement assay was performed as previously described[2] with the modification that stably transfected HEK293T cells expressing the NanoLuc-tagged SIRT250-356 fusion protein were used instead of transient transfection. Briefly, HEK293T-NLuc- SIRT250-356 cells were cultured under standard conditions (37 °C, 5% CO2) in DMEM supplemented with 10% fetal bovine serum, 2 mM glutamine, and 300 µg/mL hygromycin as a selection marker. For the assay, cells were trypsinized, resuspended in Opti-MEM® reduced serum medium, and adjusted to a concentration of 2 × 10^5 cells per mL. […]
µM was used. Serially diluted inhibitor and tracer were added to the cell suspension, and 100 μL were seeded into 96-well white, sterile, nonbinding surface plates. To evaluate the cellular permeability of LTDi-1 (6), the non-ionic detergent digitonin (50 µg/ml) was added. Plates were incubated at 37 °C with 5% CO2 for 2 h. For BRET measurements, NanoBRET NanoGlo Substrate (Promega cat. #N1571) was added to the wells according to the […]
All measurements were performed using the 2102 EnVisionTM Multilabel Reader (PerkinElmer), equipped with a 460 nm filter (donor) and a 615 nm filter (acceptor). The BRET ratio was calculated as the ratio of acceptor to donor signal, and data were normalized to vehicle-treated controls. Apparent intracellular binding affinities (EC50 values) were determined by fitting dose-response curves using nonlinear regression analysis in GraphPad Prism. […]

[5] = target: T5, NanoLuc–SIRT2 fusion protein in HEK293T cells; test: Kinetic NanoBRET washout assay (target residence time); type: cell-based; conditions: 8 µM (10 × EC50), 2 h preincubation, 2 h washout
Procedure: NanoBRET washout assay for determination of target residence time
A NanoBRET-based washout assay was used to assess the target residence time of inhibitors for SIRT2 in living cells. White, flat-bottom 96-well plates (PerkinElmer) were pre-coated with poly-L-lysine (Sigma-Aldrich) to enhance cell adherence. Briefly, each well was treated with poly-L-lysine solution for 5 min at room temperature, followed by removal of the coating solution and air-drying before seeding.
Cells were treated with the indicated inhibitor
After incubation, the inhibitor-containing medium was aspirated, and a washout procedure was performed to remove unbound inhibitor. Each well was washed twice by sequential addition and removal of 100 µL Opti-MEM (Thermo Fisher Scientific). Following the final wash, 90 µL Opti-MEM was added per well, followed by 100 µL of 2× Nano-Glo® substrate solution (Promega) and 10 µL of 20× SIRT2-Tracer solution.
BRET measurements were recorded kinetically using a Tecan Spark® plate reader equipped with donor (460 nm)
The BRET ratio was monitored over time to track the re-binding of the

[6] = target: BT-6 (biotinylated analogue of compound 6); test: BLI; SIRT2 (25–400 nM) incubated 1 h with BT-6 (500 nM) without NAD+, then immobilised on streptavidin-coated biosensors; dissociation followed
[7] = target: BT-6 (biotinylated analogue of compound 6); test: BLI; SIRT2 (25–400 nM) incubated 1 h with BT-6 (500 nM) and NAD+ (500 µM), then immobilised on streptavidin-coated biosensors; dissociation followed
[8] = 15 min NAD+ preincubation, read-out: IC50, SIRT2 demyristoylation after NAD+ preincubation
[9] = BSA-Assay, 25 °C, read-out: SIRT2 (demyr.) IC50

Molecule | IC50 (SIRT1) | IC50 (SIRT2 [2]) | IC50 (SIRT3) | IC50 (SIRT2 [3]; [8]) | IC50 (SIRT2 [3]; [9]) | also measured
CCCCCCCCCCCCc1cn(CCC[C@H](NC(=O)[C@H](CCCCN)NC(=O)[C@@H]2CCCN2C(=O)[C@H](CC(C)C)NC(=O)[C@H](C)NC(=O)[C@H](CCC(=O)O)NC(C)=O)C(=O)N[C@H](C(=O)NCC(=O)NCC(N)=O)[C@@H](C)O)nn1 [Compound 5] | 14200 ± 1500 nM | < 100 nM | 3300 ± 200 nM | 760 ± 250 nM | 1940 ± 510 nM | ΔTm at 10 µM (SIRT2 [1]): 9.9 °C
CCCCCCCCCCCCc1cn(CCCC[C@H](NC(=O)[C@H](CCCCN)NC(C)=O)C(N)=O)nn1 [Compound 6a] | 230 ± 20 nM | < 100 nM | 8200 ± 400 nM | 36 ± 2 nM | 460 ± 40 nM | –
CCCCCCCCCCCCc1cn(CCCC[C@H](NC(=O)[C@H](CCCCN)NC(=O)[C@@H]2CCCN2C(C)=O)C(=O)N[C@H](C(N)=O)[C@@H](C)O)nn1 [Compound 6b] | – | – | – | – | – | extent of cellular target engagement [4]: complete target engagement; inhibition after washout [5]: retained full inhibition throughout
Cc1cc(C)nc(SCC(=O)Nc2ncc(Cc3cccc(OCc4cn(Cc5ccc(OCCN6CCOCC6)cc5)nn4)c3)s2)n1 [Compound 2, reference compound] | – | 120 ± 10 nM | – | – | 50 ± 10 nM | SIRT1 (deac.) IC50 (SIRT1): n.i.; SIRT3 (deac.) IC50 (SIRT3): n.i.
Sirtuin 2 (SIRT2) (enzyme) MAEPDPSHPLETQAGKVQEAQDSDSDSEGGAAGGEADMDFLRNLFSQTLSLGSQKERLLDELTLEGVARYMQSERCRRVICLVGAGISTSAGIPDFRSPSTGLYDNLEKYHLPYPEAIFEISYFKKHPEPFFALAKELYPGQFKPTICHYFMRLLKDKGLLLRCYTQNIDTLERIAGLEQEDLVEAHGTFYTSHCVSASCRHEYPLSWMKEKIFSEVTPKCEDCQSLVKPDIVFFGESLPARFFSCMQSDFLKVDLLLVMGTSLQVQPFASLISKAPLSTPRLLINKEKAGQSDPFLGMIMGLGGGMDFDSKKAYRDVAWLGECDQGCLALAELLGWKKELEDLVRREHASIDAQSGAGVPNPSTSASPKKSPPPAKDEARTTEREKPQ | – | – | – | – | – | koff [6]: 0.0071 s⁻¹; koff [7]: 0.00026 s⁻¹
